Data set [1] deals with T1, Fructose-16bP aldolase Aldo-B (aldolase B), H. sapiens, SEQ ID NO:2 (Homo sapiens, UniProt P05062).
T1 sequence (P05062 1-364): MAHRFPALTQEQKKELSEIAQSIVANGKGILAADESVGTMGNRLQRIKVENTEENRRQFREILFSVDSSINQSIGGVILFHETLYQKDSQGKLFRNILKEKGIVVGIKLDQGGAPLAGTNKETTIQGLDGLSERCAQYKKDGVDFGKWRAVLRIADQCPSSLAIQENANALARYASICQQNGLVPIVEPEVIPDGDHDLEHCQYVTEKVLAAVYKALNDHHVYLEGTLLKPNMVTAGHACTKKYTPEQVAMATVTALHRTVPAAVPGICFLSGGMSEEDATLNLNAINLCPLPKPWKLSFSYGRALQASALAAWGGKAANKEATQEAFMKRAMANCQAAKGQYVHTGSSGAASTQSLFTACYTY
The experiment in a line: Kinetic parameters of candidate aldolase by coupled NADH consumption assay. Format: biochemical. The note with it: Hepes buffer pH 7, NADH consumption at 340 nm. The method, then: (§1) The cloning of the candidate aldolases was done by amplifying aldoB, fbaB and agaY by PCR (using, respectively, the primer pairs P5/P6, P7/P8 and P11/P12 listed in table 3). This amplification was performed from the plasmid peX-A-aldoB carrying aldoB with codon optimization (Eurofins) or from the E. coli genomic DNA for fbaB and agaY, respectively. The fragments were then cloned in pGEM (Invitrogen). […] The ligation product is transformed in the E. coli strain BL21(DE3).

Data set [2] has as its target T2, Fructose-16bP aldolase FbaB (fructose-1,6 bisphosphate aldolase B), E. coli, SEQ ID NO:9 (Escherichia coli, UniProt P0A991).
T2 sequence (P0A991 1-350): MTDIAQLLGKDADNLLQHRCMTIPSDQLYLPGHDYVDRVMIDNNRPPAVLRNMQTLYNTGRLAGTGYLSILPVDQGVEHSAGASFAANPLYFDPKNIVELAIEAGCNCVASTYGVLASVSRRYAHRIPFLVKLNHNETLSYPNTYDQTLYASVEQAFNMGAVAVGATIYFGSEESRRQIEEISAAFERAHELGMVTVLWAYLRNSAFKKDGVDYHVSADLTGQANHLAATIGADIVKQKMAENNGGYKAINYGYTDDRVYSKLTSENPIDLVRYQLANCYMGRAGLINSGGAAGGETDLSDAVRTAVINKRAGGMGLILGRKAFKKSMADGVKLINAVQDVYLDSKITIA
The description is as above. Format: biochemical. Conditions: Hepes buffer pH 7, NADH consumption at 340 nm. The method, then: as §1

Data set [3] has as its target T3, L-fuculokinase FucK (fuculose kinase), E. coli, SEQ ID NO:5 (Escherichia coli, UniProt P11553).
T3 sequence (P11553 1-472): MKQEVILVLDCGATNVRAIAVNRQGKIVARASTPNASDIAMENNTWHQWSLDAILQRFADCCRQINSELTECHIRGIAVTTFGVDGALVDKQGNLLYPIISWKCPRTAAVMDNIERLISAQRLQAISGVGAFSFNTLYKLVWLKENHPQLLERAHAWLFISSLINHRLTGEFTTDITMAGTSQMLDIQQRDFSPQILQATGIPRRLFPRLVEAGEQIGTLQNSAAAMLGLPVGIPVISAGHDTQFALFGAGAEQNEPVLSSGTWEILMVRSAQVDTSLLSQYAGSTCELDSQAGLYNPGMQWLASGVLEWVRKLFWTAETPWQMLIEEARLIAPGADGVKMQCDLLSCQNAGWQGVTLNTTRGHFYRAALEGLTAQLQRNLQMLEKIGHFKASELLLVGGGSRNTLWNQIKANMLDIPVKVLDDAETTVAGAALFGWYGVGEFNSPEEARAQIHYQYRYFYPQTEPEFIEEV
The experiment in a line: Kinetic parameters of candidate kinase by pyruvate kinase/lactate dehydrogenase coupling reaction. The note with it: Table 1A; 4 mM ATP, Hepes buffer pH 7, NADH at 340 nm. Format: biochemical.

The target of data set [4] is (L)-rhamnulose kinase RhaB, E. coli, SEQ ID NO:6 (Escherichia coli, UniProt P32171). The description is as above. The class given is biochemical. Conditions: Table 1A; 4 mM ATP, Hepes buffer pH 7, NADH at 340 nm.
Chain of (L)-rhamnulose kinase RhaB, E. coli, SEQ ID NO:6 (P32171 whole entry): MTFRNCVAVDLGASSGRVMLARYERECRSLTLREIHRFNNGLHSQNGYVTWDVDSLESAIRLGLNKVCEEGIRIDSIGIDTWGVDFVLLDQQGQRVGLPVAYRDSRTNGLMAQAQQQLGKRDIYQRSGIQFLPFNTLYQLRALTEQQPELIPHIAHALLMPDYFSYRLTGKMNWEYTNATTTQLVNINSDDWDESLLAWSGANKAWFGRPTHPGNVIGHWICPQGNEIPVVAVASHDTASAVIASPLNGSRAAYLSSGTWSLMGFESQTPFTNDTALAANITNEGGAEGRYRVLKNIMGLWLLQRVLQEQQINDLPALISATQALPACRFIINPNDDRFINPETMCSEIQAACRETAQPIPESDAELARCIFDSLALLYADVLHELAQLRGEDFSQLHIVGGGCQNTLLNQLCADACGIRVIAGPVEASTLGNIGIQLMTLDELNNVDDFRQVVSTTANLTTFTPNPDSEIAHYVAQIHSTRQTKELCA
Data set [5] deals with T4, Ketohexokinase Khk-C (ketohexokinase C), H. sapiens, SEQ ID NO:1 (Homo sapiens, UniProt P50053).
T4 sequence (P50053 1-298): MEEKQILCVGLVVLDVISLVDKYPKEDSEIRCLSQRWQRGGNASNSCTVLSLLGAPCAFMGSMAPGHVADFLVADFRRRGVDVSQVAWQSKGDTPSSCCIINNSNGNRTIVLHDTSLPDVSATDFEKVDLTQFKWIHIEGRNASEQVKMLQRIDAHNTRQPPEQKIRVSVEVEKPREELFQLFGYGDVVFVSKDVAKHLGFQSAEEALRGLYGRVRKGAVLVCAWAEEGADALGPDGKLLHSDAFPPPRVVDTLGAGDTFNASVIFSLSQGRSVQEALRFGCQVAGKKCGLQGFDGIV
The note with it: 4 mM ATP, Hepes buffer pH 7, NADH at 340 nm.

A short description of data set [6]: Kinase kinetic parameters on (D)-xylulose (pyruvate kinase/lactate dehydrogenase coupling reaction). Format: biochemical.
The nature of data set [7]: Kinase kinetic parameters on (L)-ribulose (pyruvate kinase/lactate dehydrogenase coupling reaction). The class given is biochemical. The text has this: The same approach was used to characterize these parameters on (L)-ribulose: […]
Substrate in data set [8]: C[C@H](O)[C@@H](O)[C@@H](O)C(=O)CO
The experiment in a line: Kinetic parameters of candidate kinase by pyruvate kinase/lactate dehydrogenase coupling reaction. The class given is biochemical, E. coli. The note with it: other: Table 1A, 4 mM ATP, Hepes buffer pH 7, NADH at 340 nm, 37.0 °C.

A short description of data set [9]: Aldolase kinetic parameters on (D)-xylulose-1-phosphate (NADH-coupled assay). Format: biochemical.
Data set [10] can be described thus: Aldolase kinetic parameters on (L)-ribulose-1-phosphate (NADH-coupled assay). Format: biochemical. The text has this: (L)-ribulose-1 kinase: (L)-ribulose+ATP→(L)-ribulose-1P+ADP (L)-ribulose-1P aldolase: (L)-ribulose-1P→DHAP+glycolaldehyde Glycerol-3P dehydrogenase: DHAP+NADH→Glycerol-3P+NAD
Substrate in data set [11]: O=P(O)(O)OC[C@H]1OC(O)(COP(=O)(O)O)[C@@H](O)[C@@H]1O
Kind of data set: purified protein, by the assay type. Conditions: other: Hepes buffer pH 7, NADH consumption at 340 nm, 37.0 °C.

Read-outs that look alike come from different tables or passages of the source.

This note sets out measurements from patent publication US10961551B2, “Process for producing at least one metabolite of interest by conversion of a pentose in a microorganism” (INSTITUT NATIONAL DE LA RECHERCHE AGRONOMIQUE—INRA, priority 2014, dated 2021).

For orientation: Km means the concentration of substrate that gives half-maximal velocity.

With `O=C(COP(=O)(O)O)[C@@H](O)[C@H](O)CO` [(D)-Xylulose-1P, (D)-xylulose-1-phosphate], the values for the Vmax in data set [1] and in [2] were 0.81 ± 0.2 U/mg and 0.18 ± 0.04 U/mg, respectively.
Regarding `O=C(CO)[C@@H](O)[C@H](O)CO` [(D)-xylulose], the Km result in [3] was “ns”; in [4], “ns”; in data set [5] (Table 1A), 600 µM. In addition, the Vmax was 0.1 U/mg in [3], 18.7 U/mg in data set [4] and 3.1 U/mg in data set [5] (Table 1A).
As to `O=C(COP(=O)(O)O)[C@@H](O)[C@@H](O)CO` [(L)-Ribulose-1P, (L)-ribulose-1-phosphate], the Vmax in [1] is given as 0.00 U/mg; in [2], 0.06 ± 0.01 U/mg.
For the molecule `O=C(CO)[C@@H](O)[C@@H](O)CO` [(L)-ribulose], in data set [5] (Table 1B), the Km came to 550 µM and the Vmax amounted to 3.5 U/mg.
For `OCC1(O)OC[C@@H](O)[C@@H](O)[C@@H]1O` (stereo partly drawn) [fructose], the Km in [5] (Table 1A) worked out at 720 µM; in data set [5] (Table 1B), 310 ± 100 µM. In addition, the Vmax in [5] (Table 1A) was 6 U/mg; in data set [5] (Table 1B), 6.59 ± 1.4 U/mg.
As to “Khk-C: isoform C of ketohexokinase of H. sapiens, encoded by khkC gene SEQ ID NO:1, expressed from pET28a and purified”, the “functional on (D)-xylulose” value in data set [6] is “functional”. Besides, the “functional on (L)-ribulose” value in data set [7] is reported as “functional”.

B1: L-fuculokinase FucK (fuculose kinase), E. coli, SEQ ID NO:5 (Escherichia coli K-12) (protein)
chain: MKQEVILVLDCGATNVRAIAVNRQGKIVARASTPNASDIAMENNTWHQWSLDAILQRFADCCRQINSELTECHIRGIAVTTFGVDGALVDKQGNLLYPIISWKCPRTAAVMDNIERLISAQRLQAISGVGAFSFNTLYKLVWLKENHPQLLERAHAWLFISSLINHRLTGEFTTDITMAGTSQMLDIQQRDFSPQILQATGIPRRLFPRLVEAGEQIGTLQNSAAAMLGLPVGIPVISAGHDTQFALFGAGAEQNEPVLSSGTWEILMVRSAQVDTSLLSQYAGSTCELDSQAGLYNPGMQWLASGVLEWVRKLFWTAETPWQMLIEEARLIAPGADGVKMQCDLLSCQNAGWQGVTLNTTRGHFYRAALEGLTAQLQRNLQMLEKIGHFKASELLLVGGGSRNTLWNQIKANMLDIPVKVLDDAETTVAGAALFGWYGVGEFNSPEEARAQIHYQYRYFYPQTEPEFIEEV
B1: in data set [8], the Michaelis-Menten constant (Km) amounted to 60 µM and the Vmax was 20 U/mg.

B2: Fructose-16bP aldolase FbaB (fructose-1,6 bisphosphate aldolase B), E. coli, SEQ ID NO:9 (Escherichia coli K-12) (protein)
chain: MTDIAQLLGKDADNLLQHRCMTIPSDQLYLPGHDYVDRVMIDNNRPPAVLRNMQTLYNTGRLAGTGYLSILPVDQGVEHSAGASFAANPLYFDPKNIVELAIEAGCNCVASTYGVLASVSRRYAHRIPFLVKLNHNETLSYPNTYDQTLYASVEQAFNMGAVAVGATIYFGSEESRRQIEEISAAFERAHELGMVTVLWAYLRNSAFKKDGVDYHVSADLTGQANHLAATIGADIVKQKMAENNGGYKAINYGYTDDRVYSKLTSENPIDLVRYQLANCYMGRAGLINSGGAAGGETDLSDAVRTAVINKRAGGMGLILGRKAFKKSMADGVKLINAVQDVYLDSKITIA
Regarding B2, in [9], the “activity on (D)-xylulose-1P” value is on record as “has an activity”. In addition, the “activity on (L)-ribulose-1P” value in data set [10] is recorded as “has an activity”. In addition, in data set [11], the Km was 330 ± 70 µM and the Vmax is 0.52 ± 0.1 U/mg.

B3: Fructose-16bP aldolase Aldo-B (aldolase B), H. sapiens, SEQ ID NO:2 (Homo sapiens) (protein)
chain: MAHRFPALTQEQKKELSEIAQSIVANGKGILAADESVGTMGNRLQRIKVENTEENRRQFREILFSVDSSINQSIGGVILFHETLYQKDSQGKLFRNILKEKGIVVGIKLDQGGAPLAGTNKETTIQGLDGLSERCAQYKKDGVDFGKWRAVLRIADQCPSSLAIQENANALARYASICQQNGLVPIVEPEVIPDGDHDLEHCQYVTEKVLAAVYKALNDHHVYLEGTLLKPNMVTAGHACTKKYTPEQVAMATVTALHRTVPAAVPGICFLSGGMSEEDATLNLNAINLCPLPKPWKLSFSYGRALQASALAAWGGKAANKEATQEAFMKRAMANCQAAKGQYVHTGSSGAASTQSLFTACYTY
As for B3, the “activity on (D)-xylulose-1P” value in [9] is recorded as “has an activity”. Moreover, in data set [11], the Km was 30 ± 10 µM and the Vmax worked out at 0.46 ± 0.05 U/mg.
